Read-outs that look alike come from different tables or passages of the source.
Key:
[1] = Pharmacokinetic study in rats after oral administration of cinobufacini capsule (UPLC-MS/MS of plasma); assay type: in vivo, rat; conditions: for AUC(0-inf) / AUC(0-t) / Cmax / Tmax / CL/F / MRT last / MRT inf / half-life / Vd/F: male, Sprague-Dawley, in vivo, rat plasma, mean ± SD, n = 6; for CL/F: read-out: CLz/F (converted); for MRT last: read-out: MRT0-t; for MRT inf: read-out: MRT0-∞; for half-life: read-out: T1/2z (converted); for Vd/F: read-out: Vz/F
Protocol: Male Sprague–Dawley rats (weighing 200–220 g) of SPF grade were offered by Sippr/BK laboratory Animal, Corp., Ltd. (Shanghai, China) and fed in the Laboratory Animal Center of the Shanghai University of Traditional Chinese Medicine. All the rats were kept under environmentally controlled conditions with constant temperature (22–24°C) and humidity (60–65%). The animal experiment program in the present research was approved by the Animal Committee of the Shanghai University of Traditional Chinese Medicine (PZSHUTCM210618012).
An Agilent 1290 liquid chromatographic system includes a G4220A quaternary pump, a G1326C column incubator, a G4226A automatic sampler, and a G1330B degasser. The column temperature was set to 35°C. A measure of 5 µL of samples were separated in an Agilent SB-C18 column (2.1 mm ×50 mm, 1.8 μm) and eluted at 0.3 ml/min, followed by gradient elution with water (0.1% V/V formic acid) (A) and acetonitrile (B) (0–1 min, 20%–20% B; 1–3.5 min, 20%–80% B; 4–4.1 min, 80%-20% B; 4.1–6 min, 20% B). The total run time was 6 minutes.
An Agilent 1290 Infinity series UPLC system was combined with an Agilent 6460 series triple quadrupole mass spectrometer (Agilent Technologies, Santa Clara, CA, United States) to quantify all 13 analytes in an ESI-positive ionization mode. Quantitative analysis was performed in an MRM mode. The mass spectrum conditions were as follows: capillary voltage, 4000V; drying gas (N2), gas flow rate: 10 L/min; sprayer, 30 psi; gas temperature 350°C; The delta EMV (+) 200 V; collision gas (N2); dwell time, 25 ms. Agilent’s MassHunter Workstation software was used for data collection, peak area calculation, and quantitative analysis.
A measure of 50 µL of the plasma sample was mixed with 10 µL of the internal standard solution (345 ng/ml) in a 1.5-ml centrifuge tube and vortexed for 5 min. The samples were extracted by 500 µL of ethyl acetate for 5 min and centrifuged at 4°C for 10 min (18000 rpm). All the supernatants were collected into another 1.5-ml centrifuge tube, dried under a gentle stream of nitrogen at 37°C, and then added with 50 µL of 80% methanol for resolution. The resolution samples were centrifuged at 4°C for 10 min (18000 rpm), and 5 µL supernatant was extracted and injected for analysis.
Twenty-four male Sprague–Dawley rats (weigh 200–220 g) were divided into four groups with six rats in each group randomly, including three capsule groups at three different doses and one injection group. In the instructions for cinobufacini capsule and injection, the clinical dosage for adults is 2 g per 70 kg orally and 20 ml per 70 kg intravenously, converting to rat doses of 180 mg/kg and 1.8 ml/kg, respectively.
In the pre-experiments, we compared cinobufacini capsule of 180 mg/kg (one-time clinical dose) and 900 mg/kg (five times of clinical dose) and Cinobufacini injection of 1.8 ml/kg, but concentrations of some compounds in plasma were too low and difficult to be quantified. […] The experimental rats were led to fast the night and were free to get access to water for 12 h before the pharmacokinetic study. After administration, blood samples (approximately 150 μL) of rats were collected via retro-orbital sinus into heparinized centrifuge tubes at 0.05, 0.083, 0.25, 0.5, 0.75, 1, 2, 4, 6, 8, and 10 h. After centrifugation at 5,000 rpm for 10 min, the plasma was transferred to 1.5-ml polypropylene tubes and stored at −80°C until UPLC-MS/MS analysis.
GraphPad Prism software (version 8.0.2) was used to draw the mean plasma concentration–time curves of all analytes. The pharmacokinetic parameters were calculated by DAS 3.2.8 software. Meanwhile, the pharmacokinetic data on rats were presented as mean ± standard deviation (SD). Differences of pharmacokinetic parameters between groups were analyzed by the t-test using SPSS software (version 26.0). Differences were considered significant statistically when the p-values were <0.05 and very significant statistically when the p-values were <0.01.

[2] = Stability of analytes in rat plasma QC samples under storage conditions; assay type: physicochemical; conditions: n = 6; for Stability during 24 h at 4°C, RE: post-treatment storage in autosampler; for −80°C for 30 days, RE / Three freeze–thaw cycles, RE: rat plasma; for −80°C for 30 days, RE: long-term; for Three freeze–thaw cycles, RE: −80°C to room temperature
Protocol: The stability of QC samples in six replicates at three concentrations (low, medium, and high levels) was analyzed under different storage conditions: the post-treatment stability was analyzed after storage in an autosampler (4°C) for 24 h. Freeze–thaw stability was investigated after three freeze–thaw cycles (−80°C to room temperature as one cycle). Long-term stability was assessed by analyzing QC samples kept at −80°C for 30 days. The concentrations of the analytes in the plasma samples and the QC samples were calculated by the calibration standard curve prepared each day. The stabilities of analytes were acceptable when the accuracy (RE, %) and precision (RSD, %) of all QC samples in all storage conditions were within ±15% compared to nominal concentrations.

[3] = oral cinobufacini capsule 0.9 g/kg (low)
[4] = oral cinobufacini capsule 1.8 g/kg (medium)
[5] = oral cinobufacini capsule 3.6 g/kg (high)
[6] = high QC level (249.58–250.28 ng/ml)
[7] = medium QC level (49.92–50.06 ng/ml)

Row | SMILES | AUC(0-inf) [1, 3] [ng·h/mL] | AUC(0-t) [1, 3] [ng·h/mL] | Cmax [1, 3] [ng/mL] | Tmax [1, 3] [h] | CL/F [1, 3] [mL/min/kg] | MRT last [1, 3] [h] | MRT inf [1, 3] [h] | half-life [1, 3] [h] | Vd/F [1, 3] [L/kg] | AUC(0-inf) [1, 4] [ng·h/mL] | AUC(0-t) [1, 4] [ng·h/mL] | Cmax [1, 4] [ng/mL] | Tmax [1, 4] [h] | CL/F [1, 4] [mL/min/kg] | MRT last [1, 4] [h] | MRT inf [1, 4] [h] | half-life [1, 4] [h] | Vd/F [1, 4] [L/kg] | AUC(0-inf) [1, 5] [ng·h/mL] | AUC(0-t) [1, 5] [ng·h/mL] | other results
1 | C[C@]12CC[C@H](O)C[C@H]1CC[C@@H]1[C@@H]2CC[C@]2(C)[C@@H](c3ccc(=O)oc3)[C@@H](O)[C@H]3O[C@]132 [DCG, desacetylcinobufagin] | 67 ± 15.3 | 61.7 ± 7.8 | 17.2 ± 4.77 | 0.83 ± 0.2 | 13 | 3.95 ± 0.73 | 4.74 ± 1.56 | 1.22 ± 0.81 | 2.8 ± 1.71 | 112 ± 14.9 | 100 ± 12.4 | 35.6 ± 2.59 | 0.89 ± 0.13 | 12 | 3 ± 0.63 | 4.86 ± 0.46 | 4.76 ± 0.52 | 5.62 ± 0.68 | 150 ± 30 | 148 ± 30.2 | Cmax [1, 5]: 56.6 ± 7.79 ng/mL; Tmax [1, 5]: 0.82 ± 0.12 h; CL/F [1, 5]: 17.2 mL/min/kg; MRT last [1, 5]: 2.44 ± 0.41 h; MRT inf [1, 5]: 2.65 ± 0.44 h; half-life [1, 5]: 2.09 ± 0.6 h; Vd/F [1, 5]: 2.79 ± 1.51 L/kg; time to reach maximum plasma concentration (Cmax) ([1]; rats, after gavage administration of cinobufacini capsule): ≤ 60 min; Stability during 24 h at 4°C, RE [2, 6]: 4.6%; Stability during 24 h at 4°C, RE ([2]; low QC level (4.99–5.00 ng/ml)): 1.5%; Stability during 24 h at 4°C, RE [2, 7]: 6.7%; −80°C for 30 days, RE [2, 6]: −3.8%; −80°C for 30 days, RE ([2]; low QC level (4.99–5.00 ng/ml)): 1.9%; −80°C for 30 days, RE [2, 7]: 3.8%; Three freeze–thaw cycles, RE [2, 6]: −2.8%; Three freeze–thaw cycles, RE ([2]; low QC level (4.99–5.00 ng/ml)): 3.0%; Three freeze–thaw cycles, RE [2, 7]: 4.9%
2 | C[C@]12CC[C@H](O)C[C@@]1(O)CC[C@@H]1[C@@H]2CC[C@]2(C)[C@@H](c3ccc(=O)oc3)[C@@H](O)[C@H]3O[C@]132 [DCT, desacetylcinobufotalin] | 13.4 ± 3.76 | 13 ± 3.69 | 6.94 ± 5.35 | 0.87 ± 0.63 | 66 | 2.53 ± 0.99 | 2.95 ± 1.78 | 0.83 ± 0.25 | 5.16 ± 2.57 | 35.7 ± 12.1 | 34.2 ± 10.4 | 12.3 ± 3.11 | 0.61 ± 0.32 | 50.3 | 2.68 ± 0.88 | 3.1 ± 0.92 | 1.97 ± 1.36 | 8.27 ± 5.18 | 62.7 ± 16.8 | 61.2 ± 16.1 | Cmax [1, 5]: 22.2 ± 5.19 ng/mL; Tmax [1, 5]: 0.39 ± 0.2 h; CL/F [1, 5]: 42.5 mL/min/kg; MRT last [1, 5]: 2.28 ± 0.37 h; MRT inf [1, 5]: 2.53 ± 0.58 h; half-life [1, 5]: 1.53 ± 0.82 h; Vd/F [1, 5]: 5.59 ± 3.29 L/kg; Stability during 24 h at 4°C, RE [2, 6]: 9.6%; Stability during 24 h at 4°C, RE ([2]; low QC level (4.99–5.00 ng/ml)): 11.4%; Stability during 24 h at 4°C, RE [2, 7]: 7.3%; −80°C for 30 days, RE [2, 6]: 8.7%; −80°C for 30 days, RE ([2]; low QC level (4.99–5.00 ng/ml)): 2.4%; −80°C for 30 days, RE [2, 7]: 12.7%; Three freeze–thaw cycles, RE [2, 6]: 7.3%; Three freeze–thaw cycles, RE ([2]; low QC level (4.99–5.00 ng/ml)): 3.7%; Three freeze–thaw cycles, RE [2, 7]: 12.1%

Reference: PMC9343874, “Comparative Pharmacokinetics of Cinobufacini Capsule and Injection by UPLC-MS/MS” (Frontiers in Pharmacology, 2022)
